Measured values published in patent US6288037A (BASF Aktiengesellschaft, priority 1996, dated 2001).
Where a SMILES comes first, the peptide text is derived from it.

Columns and labels:
[1] = target: T1, N-His Ich-1 (Homo sapiens, UniProt P42575); assay: In vitro proteolysis assay with chromogenic para-nitroaniline-labeled peptide substrate (absorbance 405 nm); type: biochemical
T1 construct: contains Ich-1 amino acid residues 167-435, with an initiator and polyhistidine tag fused to the amino terminus; initiator (Met) + polyhistidine tag (N); made in house
T1 sequence (P42575 184-333): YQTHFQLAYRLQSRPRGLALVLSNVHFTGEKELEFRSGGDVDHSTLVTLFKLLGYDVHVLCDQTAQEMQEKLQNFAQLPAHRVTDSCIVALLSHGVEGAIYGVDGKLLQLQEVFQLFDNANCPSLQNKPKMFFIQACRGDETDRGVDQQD
T1 sequence (P42575 334-452): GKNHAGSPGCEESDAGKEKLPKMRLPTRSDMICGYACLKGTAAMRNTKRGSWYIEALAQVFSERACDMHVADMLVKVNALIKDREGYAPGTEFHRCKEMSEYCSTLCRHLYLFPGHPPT
Source text: To identify peptide substrates for Ich-1, candidate peptides were used in in vitro proteolysis assays with recombinant Ich-1 protein. Human Ich-1 enzyme (the nucleotide and amino acid sequences for which are disclosed in Wang, L., et al. (1994) Cell 78:739-750) was expressed recombinantly with an N-terminal polyhistidine tag by methods described in Kamens, J., et al. (1995) J. Biol. Chem. 270:15250-15256. The resulting enzyme, called N-His Ich-1, contains Ich-1 amino acid residues 167-435, with an initiator and polyhistidine tag fused to the amino terminus. […]
A peptidic aldehyde inhibitor of Ich-1 was designed based upon the optimal peptide substrate (Peptide 43) described in Example 3. […] The ability of this peptidic aldehyde inhibitor to inhibit N-His Ich-1 activity was determined in in vitro proteolysis assays using a chromogenic para-nitroaniline-labeled peptide substrate. […]
To perform the proteolysis assay, N-His Ich-1 was preincubated for 30 minutes at 30° C. in 160 μl of a reaction buffer containing 100 mM sodium acetate (pH 6.2), 20% (v/v) glycerol, 5 mM DTT, 0.5 mM EDTA, […]. […] The incubation of N-His Ich-1 with the peptide substrate at 30° C. was continued, and the catalytic hydrolysis of peptide substrate was monitored by the change in absorbance of the samples at 405 nm due to release of pNA as a function of time. […]

[2] = test system: N-His Ich-1; assay: reaction buffer containing 100 mM sodium acetate (pH 6.2), 20% (v/v) glycerol, 5 mM DTT, 0.5 mM EDTA, at pH 7.5; details: Human, 30° C.

CC(=O)N[C@H](C(=O)N[C@@H](CC(=O)O)C(=O)N[C@H](C(=O)N[C@@H](C)C(=O)N[C@H](C=O)CC(=O)O)C(C)C)C(C)C [Ac-VDVAD-CHO, acetyl-Val-Asp-Val-Ala-Asp-CHO] (Ac-VDVAD-aldehyde)
IC50 ([1]; 500 μM pNA substrate, inhibitor 0.1 nM to 10 μM, sigmoidal fit): 8 nM | Ki ([1]; calculated from IC50, [S] and Km, read-out: apparent Ki): 2.5 nM

acetyl-Val-Asp-Val-Ala-Asp-para-nitroaniline
cleaved bond [2]: Asp-pNA
